Data: patent US5866700A, “Solid-phase synthesis of oligoribonucleotides” (Hoechst Aktiengesellschaft, priority 1993, dated 1999)

Assay: Stability test: half-life for deprotection in 0.05N HCl/MeOH (Table 1)
Format: physicochemical
Settings: 0.05N HCl/MeOH (1:2), 30 mmolar solution, 20° C., pH 2.0; values +/- 10%
Method: (§1) To test the stability, the following uridine derivatives were incubated in 0.05N HCl/MeOH (1:2), 30 mmolar solution, 20° C., pH 2.0 (Table 1) or in 80% acetic acid, 30 mmolar solution, 20° C. (Table 2) and the half-life for deprotection was determined: […]

| Structure (SMILES) | t1/2 (half-life for deprotection) |
| --- | --- |
| COc1ccc(COC(C)O[C@@H]2[C@H](O)[C@@H](CO)O[C@H]2n2ccc(=O)[nH]c2=O)cc1 (stereo partly shown) | 1.22 h |
| COc1ccc(COC(C)O[C@@H]2[C@H](O)[C@@H](CO)O[C@H]2n2ccc(=O)[nH]c2=O)cc1OC (stereo partly shown) | 1.37 h |
| CC(OCCc1ccc([N+](=O)[O-])cc1)O[C@@H]1[C@H](O)[C@@H](CO)O[C@H]1n1ccc(=O)[nH]c1=O (stereo partly shown) | 3.7 h |
| CC(OCCSc1ccccc1)O[C@@H]1[C@H](O)[C@@H](CO)O[C@H]1n1ccc(=O)[nH]c1=O (stereo partly shown) | 3.83 h |
| CC(OCCN1C(=O)c2ccccc2C1=O)O[C@@H]1[C@H](O)[C@@H](CO)O[C@H]1n1ccc(=O)[nH]c1=O (stereo partly shown) | 14 h |
| CC(OCCc1ccc([N+](=O)[O-])cc1[N+](=O)[O-])O[C@@H]1[C@H](O)[C@@H](CO)O[C@H]1n1ccc(=O)[nH]c1=O (stereo partly shown) | approx. 1200 min |
| CC(OCc1ccc([N+](=O)[O-])cc1)O[C@@H]1[C@H](O)[C@@H](CO)O[C@H]1n1ccc(=O)[nH]c1=O (stereo partly shown) | 32.67 h |
| CC(OCc1ccccc1[N+](=O)[O-])O[C@@H]1[C@H](O)[C@@H](CO)O[C@H]1n1ccc(=O)[nH]c1=O (stereo partly shown) | 37.33 h |
| CC(OCCS(C)(=O)=O)O[C@@H]1[C@H](O)[C@@H](CO)O[C@H]1n1ccc(=O)[nH]c1=O (stereo partly shown) | 52 h |
| CC(OCCS(=O)(=O)c1ccccc1)O[C@@H]1[C@H](O)[C@@H](CO)O[C@H]1n1ccc(=O)[nH]c1=O (stereo partly shown) | 52 h |
| CC(OCc1ccc([N+](=O)[O-])cc1[N+](=O)[O-])O[C@@H]1[C@H](O)[C@@H](CO)O[C@H]1n1ccc(=O)[nH]c1=O (stereo partly shown) | approx. 14000 min |
| CC(OCCC#N)O[C@@H]1[C@H](O)[C@@H](CO)O[C@H]1n1ccc(=O)[nH]c1=O (stereo partly shown) [CH2 CH2CN] | 56.17 h |
| CC(OCCCl)O[C@@H]1[C@H](O)[C@@H](CO)O[C@H]1n1ccc(=O)[nH]c1=O (stereo partly shown) [CH2CH2Cl] | 10.3 h |
| CC(OCC[N+](=O)[O-])O[C@@H]1[C@H](O)[C@@H](CO)O[C@H]1n1ccc(=O)[nH]c1=O (stereo partly shown) [CH2CH2NO2] | 67.17 h |
| CC(OCc1ccccc1)O[C@@H]1[C@H](O)[C@@H](CO)O[C@H]1n1ccc(=O)[nH]c1=O (stereo partly shown) [drawing 52] | 2.92 h |

Assay: Stability test: half-life for deprotection in 80% acetic acid (Table 2)
Format: physicochemical
Settings: 30 mmolar solution, 20° C., Values +/- 5%
Method: as §1

| Structure (SMILES) | t1/2 (half-life for deprotection) |
| --- | --- |
| CC(OCc1ccc(O)cc1)O[C@@H]1[C@H](O)[C@@H](CO)O[C@H]1n1ccc(=O)[nH]c1=O (stereo partly shown) | 0.35 h |
| CC(OCc1ccc(OC(=O)OCCc2ccc([N+](=O)[O-])cc2)cc1)O[C@@H]1[C@H](O)[C@@H](CO)O[C@H]1n1ccc(=O)[nH]c1=O (stereo partly shown) | 1.73 h |
| CC(OCc1ccc(O)c(F)c1)O[C@@H]1[C@H](O)[C@@H](CO)O[C@H]1n1ccc(=O)[nH]c1=O (stereo partly shown) | 0.8 h |
| CC(OCc1ccc(OC(=O)OCCc2ccc([N+](=O)[O-])cc2)c(F)c1)O[C@@H]1[C@H](O)[C@@H](CO)O[C@H]1n1ccc(=O)[nH]c1=O (stereo partly shown) | 5.08 h |
| CC(OCc1ccc(O)c(Cl)c1)O[C@@H]1[C@H](O)[C@@H](CO)O[C@H]1n1ccc(=O)[nH]c1=O (stereo partly shown) | 0.917 h |
| CC(OCc1cc(Cl)c(O)cc1Cl)O[C@@H]1[C@H](O)[C@@H](CO)O[C@H]1n1ccc(=O)[nH]c1=O (stereo partly shown) | 4.17 h |
| CC(OCc1cc(Cl)c(OC(=O)OCCc2ccc([N+](=O)[O-])cc2)cc1Cl)O[C@@H]1[C@H](O)[C@@H](CO)O[C@H]1n1ccc(=O)[nH]c1=O (stereo partly shown) | 21.67 h |
| CC(OCc1cc(Cl)c(OC(=O)C(C)(C)C)cc1Cl)O[C@@H]1[C@H](O)[C@@H](CO)O[C@H]1n1ccc(=O)[nH]c1=O (stereo partly shown) | 22.58 h |
| CC(OCc1c(Cl)cccc1Cl)O[C@@H]1[C@H](O)[C@@H](CO)O[C@H]1n1ccc(=O)[nH]c1=O (stereo partly shown) | 18.8 h |
| CC(OCc1ccccc1)O[C@@H]1[C@H](O)[C@@H](CO)O[C@H]1n1ccc(=O)[nH]c1=O (stereo partly shown) [drawing 64] | 1.1 h |
